Test results as given in ChEMBL document CHEMBL1201862, “PubChem BioAssay data set” (2004).
Active and inactive are the calls of the source.

How the values were obtained:
Tumor necrosis factor = Tumor necrosis factor (Homo sapiens, UniProt P01375); experiment: TNFa-triggered NF-kB activation inhibitors, SAR follow-up, cell-based, revised (AID 2337); type: functional
HEK293 [1] = experiment: cells; conditions: Homo sapiens
[2] = inhibitors of Bluetongue virus cytopathic effect, confirmation, arbovirus, BSR cells (AID 1250); type: functional;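 further: protection from viral cytopathic effect measured as cell viability by ATP luminescence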
HEK293 [3] = experiment: cells; type: functional, cell-based; conditions: Homo sapiens
HEK293 [4] = experiment: cells; type: functional, cell-based; conditions: Homo sapiens; remark: listed apart in the source
HEK293 [5] = experiment: NOD2 signaling inhibitors in MDP-stimulated cells, cell-based, uHTS, luminescence (AID 2001); type: functional; conditions: Homo sapiens
[6] = biological target: Nucleotide-binding oligomerization domain-containing protein 2 (Homo sapiens, UniProt Q9HC29); experiment: PubChem AID 2334; type: functional
Chain of Nucleotide-binding oligomerization domain-containing protein 2 (Q9HC29 whole entry, the tested form may be a part): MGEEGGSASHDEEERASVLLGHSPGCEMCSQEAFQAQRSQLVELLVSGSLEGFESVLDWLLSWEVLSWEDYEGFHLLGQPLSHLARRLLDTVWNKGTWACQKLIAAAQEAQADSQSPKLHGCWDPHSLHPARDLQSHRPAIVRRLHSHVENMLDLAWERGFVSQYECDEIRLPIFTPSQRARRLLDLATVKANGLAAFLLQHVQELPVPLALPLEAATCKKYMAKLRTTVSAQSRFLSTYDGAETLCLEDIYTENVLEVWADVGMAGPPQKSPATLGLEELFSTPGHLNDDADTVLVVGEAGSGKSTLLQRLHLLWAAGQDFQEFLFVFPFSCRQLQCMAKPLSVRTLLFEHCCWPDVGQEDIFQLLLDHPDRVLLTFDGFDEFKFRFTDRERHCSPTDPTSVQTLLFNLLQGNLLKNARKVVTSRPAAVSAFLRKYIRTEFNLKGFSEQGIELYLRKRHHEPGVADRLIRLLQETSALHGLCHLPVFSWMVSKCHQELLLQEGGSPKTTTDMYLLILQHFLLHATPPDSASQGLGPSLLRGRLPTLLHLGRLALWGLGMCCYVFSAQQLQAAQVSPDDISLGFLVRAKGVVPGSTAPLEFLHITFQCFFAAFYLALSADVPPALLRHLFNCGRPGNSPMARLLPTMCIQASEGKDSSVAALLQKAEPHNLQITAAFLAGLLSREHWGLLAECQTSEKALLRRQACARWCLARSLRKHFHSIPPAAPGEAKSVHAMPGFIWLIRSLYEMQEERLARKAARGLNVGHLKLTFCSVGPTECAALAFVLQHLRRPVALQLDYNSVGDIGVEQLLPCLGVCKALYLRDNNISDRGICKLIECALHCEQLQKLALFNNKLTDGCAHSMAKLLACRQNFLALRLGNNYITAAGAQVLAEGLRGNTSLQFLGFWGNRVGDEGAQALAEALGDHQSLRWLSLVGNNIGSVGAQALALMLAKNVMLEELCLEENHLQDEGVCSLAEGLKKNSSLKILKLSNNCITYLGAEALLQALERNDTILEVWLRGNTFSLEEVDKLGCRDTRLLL

[7] = biological target: T1, Nucleotide-binding oligomerization domain-containing protein 1 (Homo sapiens, UniProt Q9Y239); experiment: NOD1 signaling inhibitors, SAR follow-up, revised (AID 2333); type: functional
T1 sequence (Q9Y239 whole entry): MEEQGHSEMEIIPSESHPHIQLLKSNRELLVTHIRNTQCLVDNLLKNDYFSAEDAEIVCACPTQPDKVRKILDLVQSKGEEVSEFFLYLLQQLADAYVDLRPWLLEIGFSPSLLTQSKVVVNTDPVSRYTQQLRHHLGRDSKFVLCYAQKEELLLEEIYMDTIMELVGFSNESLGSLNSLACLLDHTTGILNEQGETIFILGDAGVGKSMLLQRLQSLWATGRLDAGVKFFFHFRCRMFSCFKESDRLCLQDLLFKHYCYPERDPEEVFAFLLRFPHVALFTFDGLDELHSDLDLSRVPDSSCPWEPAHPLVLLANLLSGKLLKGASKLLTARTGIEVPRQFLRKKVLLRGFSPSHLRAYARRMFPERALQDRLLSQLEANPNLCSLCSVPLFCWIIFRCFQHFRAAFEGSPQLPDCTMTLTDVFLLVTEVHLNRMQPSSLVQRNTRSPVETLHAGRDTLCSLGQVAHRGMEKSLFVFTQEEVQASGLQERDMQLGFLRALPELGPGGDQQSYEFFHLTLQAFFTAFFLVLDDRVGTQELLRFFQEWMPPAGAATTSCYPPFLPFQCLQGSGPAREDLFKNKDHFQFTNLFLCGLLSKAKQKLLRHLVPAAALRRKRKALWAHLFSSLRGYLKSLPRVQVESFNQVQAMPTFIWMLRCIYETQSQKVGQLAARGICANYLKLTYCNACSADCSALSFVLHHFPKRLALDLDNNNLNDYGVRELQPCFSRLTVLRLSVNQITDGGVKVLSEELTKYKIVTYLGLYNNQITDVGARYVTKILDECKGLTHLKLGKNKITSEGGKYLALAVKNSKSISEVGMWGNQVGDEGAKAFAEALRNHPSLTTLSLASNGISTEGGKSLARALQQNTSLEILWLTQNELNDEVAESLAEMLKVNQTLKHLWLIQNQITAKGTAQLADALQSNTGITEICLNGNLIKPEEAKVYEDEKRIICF

HEK293 [8] = experiment: NOD1 signaling inhibitors, primary screen, cell-based, luminescence, uHTS (AID 1578); type: functional; conditions: Homo sapiens
Streptokinase A = biological target: T2, Streptokinase A (Streptococcus pyogenes serotype M1, UniProt P10520); experiment: S. pyogenes streptokinase expression inhibitors, potency, dose response, plasminogen activation absorbance, OD405 (AID 1914); type: functional, Streptococcus pyogenes M1 GAS;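 further: secreted streptokinase activity via plasminogen activation per viability signal from cell pellet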
T2 sequence (P10520 whole entry): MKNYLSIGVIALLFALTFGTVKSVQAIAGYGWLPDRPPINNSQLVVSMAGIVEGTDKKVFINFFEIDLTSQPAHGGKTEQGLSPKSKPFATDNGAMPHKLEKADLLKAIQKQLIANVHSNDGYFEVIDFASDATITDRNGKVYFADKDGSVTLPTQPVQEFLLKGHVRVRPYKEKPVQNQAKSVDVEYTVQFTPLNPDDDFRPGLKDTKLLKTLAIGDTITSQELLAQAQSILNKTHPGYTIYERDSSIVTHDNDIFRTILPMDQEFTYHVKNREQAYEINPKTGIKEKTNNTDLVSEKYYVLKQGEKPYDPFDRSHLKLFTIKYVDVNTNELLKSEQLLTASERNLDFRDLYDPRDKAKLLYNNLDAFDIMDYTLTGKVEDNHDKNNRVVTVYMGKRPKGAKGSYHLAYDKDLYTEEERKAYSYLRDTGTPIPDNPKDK

[9] = system: Streptococcus sp. 'group A'; experiment: growth inhibition of control SK(-) GAS strain, dose response, counter-screen for streptokinase expression inhibitor project, luminescence, kanamycin, BacTiterGlo, confirmation (AID 1900); type: functional, organism-based
[10] = biological target: G-protein coupled receptor 35 (Homo sapiens, UniProt Q9HC97); experiment: GPR35 antagonists blocking zaprinast-driven arrestin recruitment, primary screen, imaging, U2OS, beta-arrestin-GFP, zaprinast agonist (AID 2058); type: functional;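 further: antagonist potency meaning inhibition of agonist-induced arrestin redistribution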
Chain of G-protein coupled receptor 35 (Q9HC97 whole entry): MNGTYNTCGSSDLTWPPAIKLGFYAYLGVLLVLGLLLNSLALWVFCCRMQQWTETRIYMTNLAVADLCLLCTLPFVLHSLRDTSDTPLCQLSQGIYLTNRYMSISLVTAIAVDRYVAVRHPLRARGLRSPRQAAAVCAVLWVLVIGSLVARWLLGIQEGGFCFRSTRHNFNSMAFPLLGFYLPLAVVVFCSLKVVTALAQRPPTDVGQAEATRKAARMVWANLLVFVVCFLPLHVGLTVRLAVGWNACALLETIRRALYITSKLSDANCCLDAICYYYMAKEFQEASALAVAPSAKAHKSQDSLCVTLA

Streptococcus = experiment: Group A Streptococcus viability loss, dose response, counter-screen for streptokinase expression inhibitor project, luminescence, BacTiterGlo (AID 1915); type: functional, organism-based;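 further: potency for reduction of bacterial viability or growth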
[11] = biological target: T3, Sentrin-specific protease 8 (Homo sapiens, UniProt Q96LD8); type: functional
T3 sequence (Q96LD8 whole entry): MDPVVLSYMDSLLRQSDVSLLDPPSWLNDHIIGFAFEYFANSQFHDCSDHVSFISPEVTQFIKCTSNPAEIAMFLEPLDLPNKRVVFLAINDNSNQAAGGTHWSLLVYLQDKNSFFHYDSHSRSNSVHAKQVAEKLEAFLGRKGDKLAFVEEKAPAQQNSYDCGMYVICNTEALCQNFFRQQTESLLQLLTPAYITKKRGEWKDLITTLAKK

[12] = biological target: T4, Tyrosyl-DNA phosphodiesterase 2 (Homo sapiens, UniProt O95551); experiment: human TDP2 enzyme inhibitors, dose response, biochemical, epi absorbance, IC50 (AID 743297)
T4 sequence (O95551 whole entry): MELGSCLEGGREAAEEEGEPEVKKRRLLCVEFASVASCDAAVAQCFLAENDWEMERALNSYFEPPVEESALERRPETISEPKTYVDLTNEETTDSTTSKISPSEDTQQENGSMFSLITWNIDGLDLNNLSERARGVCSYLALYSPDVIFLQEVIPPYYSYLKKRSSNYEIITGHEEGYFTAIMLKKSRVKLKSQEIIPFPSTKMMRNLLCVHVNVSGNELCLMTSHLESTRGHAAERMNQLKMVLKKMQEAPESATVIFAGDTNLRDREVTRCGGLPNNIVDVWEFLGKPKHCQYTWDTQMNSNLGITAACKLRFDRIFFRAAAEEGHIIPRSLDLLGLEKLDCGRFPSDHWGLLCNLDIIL

HeLa = experiment: HeLa cell cytotoxicity, dose response, cytotoxicity control, 24 h, cherry-picked samples (AID 504726); type: functional, cell-based; conditions: Homo sapiens;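 further: potency for cytotoxicity as loss of luminescence signal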
Protein RecA = biological target: T5, Protein RecA (Mycobacterium tuberculosis, UniProt P9WHJ3); experiment: Fluorescence Cell-Free Homogeneous Dose Retest to Identify Inhibitors of RecA-Intein Splicing Activity. [Related pubchem assays (depositor defined):AID2097, AID2223, AID489010, AID492950]; type: functional
T5 sequence (P9WHJ3 whole entry): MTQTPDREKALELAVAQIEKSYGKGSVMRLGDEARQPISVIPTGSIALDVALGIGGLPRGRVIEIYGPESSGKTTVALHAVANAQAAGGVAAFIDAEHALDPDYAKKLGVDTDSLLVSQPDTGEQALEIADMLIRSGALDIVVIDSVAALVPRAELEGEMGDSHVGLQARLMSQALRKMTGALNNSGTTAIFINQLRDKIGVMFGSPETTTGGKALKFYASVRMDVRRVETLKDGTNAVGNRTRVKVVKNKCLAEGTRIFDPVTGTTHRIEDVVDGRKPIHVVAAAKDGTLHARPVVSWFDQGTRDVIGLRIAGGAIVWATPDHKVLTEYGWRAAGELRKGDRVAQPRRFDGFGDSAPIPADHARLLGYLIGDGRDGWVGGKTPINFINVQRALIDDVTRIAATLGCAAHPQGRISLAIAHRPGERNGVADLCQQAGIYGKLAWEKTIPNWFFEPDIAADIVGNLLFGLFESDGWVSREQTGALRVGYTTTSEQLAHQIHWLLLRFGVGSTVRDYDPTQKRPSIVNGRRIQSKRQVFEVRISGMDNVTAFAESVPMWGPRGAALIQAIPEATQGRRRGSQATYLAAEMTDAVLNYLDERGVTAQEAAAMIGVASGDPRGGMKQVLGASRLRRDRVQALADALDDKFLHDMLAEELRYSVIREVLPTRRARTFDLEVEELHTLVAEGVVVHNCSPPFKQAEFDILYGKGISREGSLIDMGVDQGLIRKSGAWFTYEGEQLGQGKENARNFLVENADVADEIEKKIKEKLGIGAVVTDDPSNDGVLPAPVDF

Fibrinogen beta chain [13] = biological target: T6, Fibrinogen beta chain (Homo sapiens, UniProt P02675); experiment: Fluorescence polarization-based biochemical high throughput dose response assay to identify inhibitors that disrupt the binding of a cyclic peptide (Tn7) to the fibrin proteolytic product D-Dimer and fragment E complex [DD(E )].
T6 sequence (P02675 whole entry, the tested form may be a part): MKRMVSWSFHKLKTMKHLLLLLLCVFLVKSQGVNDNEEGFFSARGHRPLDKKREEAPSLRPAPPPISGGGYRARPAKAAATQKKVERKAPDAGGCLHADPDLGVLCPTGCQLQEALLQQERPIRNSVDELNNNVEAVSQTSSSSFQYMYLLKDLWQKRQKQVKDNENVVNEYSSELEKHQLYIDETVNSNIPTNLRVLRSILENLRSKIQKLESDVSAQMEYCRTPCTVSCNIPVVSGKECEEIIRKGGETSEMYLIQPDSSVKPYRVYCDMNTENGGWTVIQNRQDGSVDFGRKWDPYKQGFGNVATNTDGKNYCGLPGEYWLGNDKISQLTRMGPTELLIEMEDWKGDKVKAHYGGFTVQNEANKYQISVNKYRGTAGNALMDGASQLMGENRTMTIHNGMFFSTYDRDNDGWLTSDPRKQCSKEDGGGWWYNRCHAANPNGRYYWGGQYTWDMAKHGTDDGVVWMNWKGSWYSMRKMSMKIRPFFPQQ

[14] = biological target: Glutathione-S-transferase (Schistosoma japonicum, UniProt Q26513); experiment: biotin-GST/anti-GST TR-FRET signal inhibitors, dose response, artefact control for Vif-APOBEC3G degradation inhibitor project, biochemical (AID 1117362); type: functional
Chain of Glutathione-S-transferase (Q26513 whole entry): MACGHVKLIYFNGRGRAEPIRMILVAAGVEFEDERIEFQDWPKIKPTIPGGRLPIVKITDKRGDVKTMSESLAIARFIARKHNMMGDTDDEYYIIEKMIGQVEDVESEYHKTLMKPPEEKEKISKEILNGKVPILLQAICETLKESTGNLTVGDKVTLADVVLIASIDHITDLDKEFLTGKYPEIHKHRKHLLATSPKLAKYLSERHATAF

14-3-3 protein gamma = 14-3-3 protein gamma (Homo sapiens, UniProt P61981); experiment: modulators of 14-3-3 gamma client binding – dose response (AID 711); type: functional
Chain of 14-3-3 protein gamma (P61981 whole entry): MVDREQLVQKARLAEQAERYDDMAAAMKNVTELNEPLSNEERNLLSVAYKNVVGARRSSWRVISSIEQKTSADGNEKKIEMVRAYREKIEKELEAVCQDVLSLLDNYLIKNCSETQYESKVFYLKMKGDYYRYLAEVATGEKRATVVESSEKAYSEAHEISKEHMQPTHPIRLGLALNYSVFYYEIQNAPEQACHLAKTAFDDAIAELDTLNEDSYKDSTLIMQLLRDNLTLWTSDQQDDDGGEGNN

[15] = biological target: T3, Sentrin-specific protease 8; type: functional; remark: listed apart in the source
[16] = biological target: T7, Replicative DNA helicase DnaB (Mycobacterium tuberculosis, UniProt P9WMR3); experiment: DnaB intein splicing inhibitors, dose response, biochemical, cell-free fluorescence (AID 449749); type: functional
T7 sequence (P9WMR3 whole entry): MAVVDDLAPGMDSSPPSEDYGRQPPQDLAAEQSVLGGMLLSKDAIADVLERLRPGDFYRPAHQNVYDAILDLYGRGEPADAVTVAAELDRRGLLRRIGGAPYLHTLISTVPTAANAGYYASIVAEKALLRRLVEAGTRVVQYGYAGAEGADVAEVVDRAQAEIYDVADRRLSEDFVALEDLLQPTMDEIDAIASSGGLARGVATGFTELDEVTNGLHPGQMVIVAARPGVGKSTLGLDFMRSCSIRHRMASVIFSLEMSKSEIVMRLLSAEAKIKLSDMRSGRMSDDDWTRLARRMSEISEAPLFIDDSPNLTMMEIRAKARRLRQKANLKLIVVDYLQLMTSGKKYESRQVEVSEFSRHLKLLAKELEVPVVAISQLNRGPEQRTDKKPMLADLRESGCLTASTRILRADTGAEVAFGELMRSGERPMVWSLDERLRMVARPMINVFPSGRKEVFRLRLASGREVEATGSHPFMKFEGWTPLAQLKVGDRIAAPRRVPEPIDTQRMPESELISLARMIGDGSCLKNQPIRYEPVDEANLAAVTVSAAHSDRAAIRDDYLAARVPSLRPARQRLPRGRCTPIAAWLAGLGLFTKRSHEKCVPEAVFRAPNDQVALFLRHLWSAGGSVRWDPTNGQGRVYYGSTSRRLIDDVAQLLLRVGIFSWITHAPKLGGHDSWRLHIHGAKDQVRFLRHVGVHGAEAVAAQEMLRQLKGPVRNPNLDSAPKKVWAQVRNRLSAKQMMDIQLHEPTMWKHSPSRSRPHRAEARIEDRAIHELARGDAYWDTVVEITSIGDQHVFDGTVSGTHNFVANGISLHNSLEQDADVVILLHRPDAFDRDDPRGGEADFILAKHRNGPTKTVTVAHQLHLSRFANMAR

[17] = biological target: Histone-lysine N-methyltransferase NSD2 (Homo sapiens, UniProt O96028); type: biochemical
Chain of Histone-lysine N-methyltransferase NSD2 (O96028 whole entry, the tested form may be a part): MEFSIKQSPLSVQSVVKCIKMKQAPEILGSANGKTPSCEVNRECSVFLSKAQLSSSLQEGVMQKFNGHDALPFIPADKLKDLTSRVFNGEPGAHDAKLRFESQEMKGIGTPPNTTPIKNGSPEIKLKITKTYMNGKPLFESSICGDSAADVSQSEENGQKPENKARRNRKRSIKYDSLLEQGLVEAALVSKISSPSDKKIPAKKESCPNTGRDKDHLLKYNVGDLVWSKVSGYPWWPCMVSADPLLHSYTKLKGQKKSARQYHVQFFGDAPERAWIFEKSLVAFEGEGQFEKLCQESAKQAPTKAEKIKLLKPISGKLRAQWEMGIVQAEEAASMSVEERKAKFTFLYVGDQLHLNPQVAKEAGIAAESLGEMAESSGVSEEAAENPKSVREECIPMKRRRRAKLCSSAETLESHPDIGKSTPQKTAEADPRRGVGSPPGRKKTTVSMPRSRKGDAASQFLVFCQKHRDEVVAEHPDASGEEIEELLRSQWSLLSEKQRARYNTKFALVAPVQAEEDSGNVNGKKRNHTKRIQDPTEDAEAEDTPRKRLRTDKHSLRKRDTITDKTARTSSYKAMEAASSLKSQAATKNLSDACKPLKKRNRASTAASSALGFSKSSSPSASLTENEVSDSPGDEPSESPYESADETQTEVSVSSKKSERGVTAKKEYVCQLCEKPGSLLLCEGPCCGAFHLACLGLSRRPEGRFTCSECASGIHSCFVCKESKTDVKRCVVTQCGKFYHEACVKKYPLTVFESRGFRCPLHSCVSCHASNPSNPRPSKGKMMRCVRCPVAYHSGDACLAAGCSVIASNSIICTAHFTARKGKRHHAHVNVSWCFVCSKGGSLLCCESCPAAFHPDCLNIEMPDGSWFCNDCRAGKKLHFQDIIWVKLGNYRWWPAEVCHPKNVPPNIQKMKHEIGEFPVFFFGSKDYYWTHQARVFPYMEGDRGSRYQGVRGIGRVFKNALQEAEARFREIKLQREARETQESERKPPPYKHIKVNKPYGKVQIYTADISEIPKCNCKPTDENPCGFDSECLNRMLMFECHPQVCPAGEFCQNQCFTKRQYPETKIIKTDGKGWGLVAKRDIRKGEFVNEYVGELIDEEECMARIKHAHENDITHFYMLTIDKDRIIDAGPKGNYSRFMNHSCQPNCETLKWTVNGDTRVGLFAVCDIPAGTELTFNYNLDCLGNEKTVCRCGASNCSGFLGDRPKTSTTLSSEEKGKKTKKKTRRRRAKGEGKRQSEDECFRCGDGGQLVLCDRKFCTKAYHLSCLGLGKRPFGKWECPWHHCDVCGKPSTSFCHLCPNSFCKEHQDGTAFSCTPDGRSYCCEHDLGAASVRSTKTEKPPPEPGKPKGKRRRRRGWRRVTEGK

Fibrinogen beta chain [18] = biological target: T6, Fibrinogen beta chain; experiment: Fluorescence polarization-based biochemical high throughput dose response assay to identify inhibitors that disrupt the binding of a cyclic peptide (Tn6) to the fibrin proteolytic product D-Dimer and fragment E complex [DD(E )].

Chain of Tumor necrosis factor (P01375 whole entry): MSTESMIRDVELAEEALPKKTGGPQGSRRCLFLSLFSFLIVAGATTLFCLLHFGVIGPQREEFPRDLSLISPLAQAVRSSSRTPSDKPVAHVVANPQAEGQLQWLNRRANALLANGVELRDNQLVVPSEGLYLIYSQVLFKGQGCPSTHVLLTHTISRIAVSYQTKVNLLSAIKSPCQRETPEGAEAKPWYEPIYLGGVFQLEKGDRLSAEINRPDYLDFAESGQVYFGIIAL

## CS(=O)(=O)c1ccc2nc(NC(=O)c3cccc(NS(=O)(=O)c4ccc(F)c(F)c4)c3)sc2c1
Tumor necrosis factor
  IC50: 16.9 µM (active)
HEK293 [1]
  IC50: > 20 µM (inactive)
[2]
  IC50: 23.7 µM (active)
HEK293 [3]
  IC50: > 20 µM (inactive)
HEK293 [4]
  IC50: > 20 µM (inactive)
HEK293 [5]
  IC50: > 20 µM (inactive)
[6]
  IC50: 18.4 µM (active)
[7]
  IC50: 3.16 µM (active)
HEK293 [8]
  EC50: 5.5 µM (active)

## CC(C)c1ccc(N2C(=O)/C(=C/N(C)C)SC2=S)cc1
Streptokinase A
  EC50: 5.29 µM (active)
[9]
  EC50: 3.85 µM (active)
[10]
  IC50: 0.835 µM (active)
Streptococcus
  EC50: 57 µM (active)

## Cc1cc2c(N)cccc2nn1
[11]
  IC50: 2.14 µM (active)
[12]
  IC50: 27.2 µM (inactive)
HeLa
  AC50: > 350 µM (inactive)
Protein RecA
  EC50: 54.6 µM (active)
Fibrinogen beta chain [13]
  IC50: > 83.3 µM (inactive)
[14]
  IC50: 52.6 µM (active)
14-3-3 protein gamma
  IC50: > 50 µM (not active)
[15]
  IC50: 6 µM (active)
[16]
  AC50: > 380 µM (inactive)
[17]
  AC50: 4.77 µM (active)
Fibrinogen beta chain [18]
  IC50: > 83.3 µM (inactive)
